target: MCH receptor (Homo sapiens, UniProt Q99705); assay: High throughput functional screening FLIPR/FDSS6000: inhibition of MCH-evoked intracellular Ca2+ changes; format: cell-based; details: class by percent of control at 10^-7 M or IC50
Source text: Subsequently, a functional based assay was used to confirm the lead hits, referred to as FLIPR™ (the Fluorometric Imaging Plate Reader) and FDSS6000™ (Functional Drug Screening System). This assay utilized 3 non-endozenous, constitutively active version of the MCH receptor.
The FLIPR and FDSS assays are able to detect intracellular Ca^2+ concentration in cells, which can be utilized to assess receptor activation and determine whether a candidate compound is an, for example, antagonist, inverse agonist or agonist to a Gq-coupled receptor. The concentration of free Ca^2+ in the cytosol of any cell is extremely low, whereas its concentration in the extracellular fluid and endoplasmic reticulum (ER) is very high. Thus, there is a large gradient tending to drive Ca^2+ into the cytosol across both the plasma membrane and ER. The FLIPR™ and FDSS6000™ systems (Molecular Devices Corporation, HAMAMATSU Photonics K.K.) are designed to perform functional cell-based assays, such as the measurement of intracellular calcium for high-throughput screening, The measurement of fluorescent is associated with calcium release upon activation of the Gq-coupled receptors.
Fluorometric Imaging Plate Reader system was used to allow for rapid, kinetic measurements of intracellular fluorescence in 96 well microplates (or 384 well microplates). Simultaneous measurements of fluorescence in all wells can be made by FLIPR or FDSS6000™ every second with high sensitivity and precision. These systems are ideal for measuring cell-based functional assays such as monitoring the intracellular calcium fluxes that occur within seconds after activation of the Gq coupled receptor.
Briefly, the cells are seeded into 96 well at 5.5×10^4 cells/well with complete culture media (Dulbecco's Modified Eagle Medium with 10% fetal bovine serum, 2 mMi L-glutamine, 1 mM sodium pyruvate and 0.5 mg/ml G418, pH 7.4) for the assay next day. On the day of assay, the media is removed and the cells are incubated with 100 μl of loading buffer (4 μM Fluo4-AM in complete culture media containing 2.5 mM Probenicid, 0.5 mg/ml and 0.2% bovine serum albumin) in 5% CO2 incubator at 37° C. for 1 hr. The loading buffer is removed, and the cells are washed with wash buffer (Hank's Balanced Salt Solution containing 2.5 mM Probenicid, 20 mM HEPES, 0.5 mg/ml and 0.2% bovine serum albumm, pH 7.4)). One hundred fifty μl of wash buffer containing various concentrations of test compound is added to the cells, and the cells are incubated in 5% CO2 incubator at 37° C. for 3 min. Fifty μl of wash buffer containing various concentration of MCH are added to each well, and transient changes in [Ca^2+]i evokled bee MCH are monoitored using the FLIPR, or FDSS in 96 shell plates at Ex. 488 nm and Em. 530 nm for 290 second. When antagonist activity of compound is tested, 50 nM of MCH is used.
Use of FLIPR™ and FDSS6000™ can be accomplished by following manufacturer's instruction (Molecular Device Corporation and HAMAMATSU Photonics K.K.).

Q: With CN(C)c1nc(N[C@H]2CC[C@@H](CNC(=O)NCc3ccc(Cl)cc3Cl)CC2)nc2ccccc12 [compound 478, N-(2,4-dichlorobenzyl)-N′-[(cis-4-{[4-(dimethylamino)quinazolin-2-yl]amino}cyclohexyl)methyl]urea] as the compound, how does the class read?
A: 2 (Class 2: The value of percent of control at 10^−7 M was from 40% to 60% or the value of IC50 was from 50 nM to 200 nM.)

Q: For Cc1noc(C)c1NC(=O)NC[C@H]1CC[C@@H](Nc2nc(N(C)C)c3ccccc3n2)CC1 [compound 774, N-[(cis-4-{[4-(dimethylamino)quinazolin-2-yl]amino}cyclohexyl)methyl]-N′-(3,5-dimethylisoxazol-4-yl)urea], which class is on record?
A: 2 (Class 2: The value of percent of control at 10^−7 M was from 40% to 60% or the value of IC50 was from 50 nM to 200 nM.)

Q: With COc1ccc(NC(=O)NC[C@H]2CC[C@@H](Nc3nc(N(C)C)c4ccccc4n3)CC2)cc1OC1CCCC1 [compound 762] as the compound, how does the class read?
A: 3 (Class 3: The value of percent of control at 10^−7 M was more than 60% or the value of IC50 was more than 200 nM.)

Q: With CN(C)c1nc(N[C@H]2CC[C@@H](NC(=O)Nc3ccc4c(c3)OCCCO4)CC2)nc2ccccc12 [compound 343, N-(3,4-dihydro-2H-1,5-benzodioxepin-7-yl)-N′-(cis-4-{[4-(dimethylamino)quinazolin-2-yl]amino}cyclohexyl)urea] as the compound, how does the class read?
A: 1 (Class 1: The value of percent of control at 10^−7 M was less than 40% or the value of IC50 was less than 50 nM.)

Q: With Cc1cc([N+](=O)[O-])ccc1NC(=S)N[C@H]1CC[C@@H](Nc2nc(N(C)C)c3ccccc3n2)CC1 [compound 302, N-(cis-4-{[4-(dimethylamino)quinazolin-2-yl]amino}cyclohexyl)-N′-(2-methyl-4-nitrophenyl)thiourea] as the compound, how does the class read?
A: 1 (Class 1: The value of percent of control at 10^−7 M was less than 40% or the value of IC50 was less than 50 nM.)

Q: CN(C)c1nc(N[C@H]2CC[C@@H](CNC(=S)Nc3ccccc3-c3ccccc3)CC2)nc2ccccc12 [compound 721] was tested. Which class did it give?
A: 3 (Class 3: The value of percent of control at 10^−7 M was more than 60% or the value of IC50 was more than 200 nM.)

Q: For CN(C)c1nc(N[C@H]2CC[C@@H](CNC(=S)Nc3c(Cl)cc(Cl)cc3Cl)CC2)nc2ccccc12 [compound 670, N-[(cis-4-{[4-(dimethylamino)quinazolin-2-yl]amino}cyclohexyl)methyl]-N′-(2,4,6-trichlorophenyl)thiourea], which class is on record?
A: 2 (Class 2: The value of percent of control at 10^−7 M was from 40% to 60% or the value of IC50 was from 50 nM to 200 nM.)

Q: With CC(NC(=O)NC[C@H]1CC[C@@H](Nc2nc(N(C)C)c3ccccc3n2)CC1)c1cccc2ccccc12 (relative stereo) [compound 461] as the compound, how does the class read?
A: 3 (Class 3: The value of percent of control at 10^−7 M was more than 60% or the value of IC50 was more than 200 nM.)

Q: With Cc1ccc(C)c(NC(=S)N[C@H]2CC[C@@H](Nc3nc(N(C)C)c4ccccc4n3)CC2)c1 [compound 362, N-(cis-4-{[4-(dimethylamino)quinazolin-2-yl]amino}cyclohexyl)-N′-(2,5-dimethylphenyl)thiourea] as the compound, how does the class read?
A: 2 (Class 2: The value of percent of control at 10^−7 M was from 40% to 60% or the value of IC50 was from 50 nM to 200 nM.)

Q: How did the class turn out when CC(=O)c1cccc(NC(=S)NC[C@H]2CC[C@@H](Nc3nc(N(C)C)c4ccccc4n3)CC2)c1 [compound 577] was run?
A: 3 (Class 3: The value of percent of control at 10^−7 M was more than 60% or the value of IC50 was more than 200 nM.)

Q: CN(C)c1nc(N[C@H]2CC[C@@H](CNC(=S)NCC3CCCO3)CC2)nc2ccccc12 (relative stereo) [compound 620] was tested. Which class did it give?
A: 2 (Class 2: The value of percent of control at 10^−7 M was from 40% to 60% or the value of IC50 was from 50 nM to 200 nM.)

Q: For COc1ccccc1NC(=S)NC[C@H]1CC[C@@H](Nc2nc(N(C)C)c3ccccc3n2)CC1 [compound 609], which class is on record?
A: 3 (Class 3: The value of percent of control at 10^−7 M was more than 60% or the value of IC50 was more than 200 nM.)

Q: CN(C)c1nc(N[C@H]2CC[C@@H](CNC(=O)Nc3ccccc3Cc3ccccc3)CC2)nc2ccccc12 [compound 485] was tested. Which class did it give?
A: 3 (Class 3: The value of percent of control at 10^−7 M was more than 60% or the value of IC50 was more than 200 nM.)

Q: With CN(C)c1nc(N[C@H]2CC[C@@H](CNC(=O)NC3CCN(C(=O)OCc4ccccc4)CC3)CC2)nc2ccccc12 [compound 770] as the compound, how does the class read?
A: 3 (Class 3: The value of percent of control at 10^−7 M was more than 60% or the value of IC50 was more than 200 nM.)

Q: How did the class turn out when CN(C)c1nc(N[C@H]2CC[C@@H](NC(=S)NC3CC3)CC2)nc2ccccc12 [compound 288, N-cyclopropyl-N′-(cis-4-{[4-(dimethylamino)quinazolin-2-yl]amino}cyclohexyl)thiourea] was run?
A: 2 (Class 2: The value of percent of control at 10^−7 M was from 40% to 60% or the value of IC50 was from 50 nM to 200 nM.)

Q: How did the class turn out when Cc1c(Cl)cccc1NC(=O)NC[C@H]1CC[C@@H](Nc2nc(N(C)C)c3ccccc3n2)CC1 [compound 528] was run?
A: 1 (Class 1: The value of percent of control at 10^−7 M was less than 40% or the value of IC50 was less than 50 nM.)

Q: With CN(C)c1nc(N[C@H]2CC[C@@H](CNC(=O)NC3C[C@H]3c3ccccc3)CC2)nc2ccccc12 (stereo partly drawn) [compound 451] as the compound, how does the class read?
A: 3 (Class 3: The value of percent of control at 10^−7 M was more than 60% or the value of IC50 was more than 200 nM.)

Q: With CN(C)c1ccc(NC(=S)N[C@H]2CC[C@@H](Nc3nc(N(C)C)c4ccccc4n3)CC2)cc1 [compound 386] as the compound, how does the class read?
A: 3 (Class 3: The value of percent of control at 10^−7 M was more than 60% or the value of IC50 was more than 200 nM.)

same assay, conditions: class by percent of control at 10^-7 M or by IC50; read-out: class

Q: For CN(C)c1nc(N[C@H]2CC[C@@H](C(=O)NCc3ccc(F)cc3F)CC2)nc2ccccc12 [Example 922, cis-N-(2,4-Difluorobenzyl)-4-{[4-(dimethylamino)quinazolin-2-yl]amino}cyclohexanecarbozamide], which IC50 is on record?
A: > 200 nM

Q: CN(C)c1nc(N[C@H]2CC[C@@H](NC(=S)NCc3ccc4c(c3)OCO4)CC2)nc2ccccc12 [compound 180, N-(1,3-benzodioxol-5-ylmethyl)-N′-(cis-4-{[4-(dimethylamino)quinazolin-2-yl]amino}cyclohexyl)thiourea] was tested. Which IC50 did it give?
A: 50 to 200 nM

Q: How did the IC50 turn out when COC(=O)NC[C@H]1CC[C@@H](Nc2nc(N(C)C)c3ccccc3n2)CC1 [compound 882] was run?
A: > 200 nM

Q: CN(C)c1nc(N[C@H]2CC[C@@H](NC(=O)Nc3ccc(-c4ccccc4)cc3)CC2)nc2ccccc12 [compound 833] was tested. Which IC50 did it give?
A: > 200 nM

Q: Which IC50 does the source give for Cc1cccc(NC(=O)N[C@H]2CC[C@@H](Nc3nc(N(C)C)c4ccccc4n3)CC2)c1 [compound 59, N-(cis-4-{[4-(dimethylamino)quinazolin-2-yl]amino}cyclohexyl)-N′-(3-methylphenyl)urea] here?
A: 50 to 200 nM

Q: Which IC50 does the source give for CC(C)c1ccccc1NC(=O)N[C@H]1CC[C@@H](Nc2nc(N(C)C)c3ccccc3n2)CC1 [compound 103, N-(cis-4-{[4-(dimethylamino)quinazolin-2-yl]amino}cyclohexyl)-N′-(2-isopropylphenyl)urea] here?
A: < 50 nM

Q: For CN(C)c1nc(N[C@H]2CC[C@@H](NC(=S)NCC3CCCO3)CC2)nc2ccccc12 (relative stereo) [compound 196], which IC50 is on record?
A: > 200 nM

Q: CN(C)c1nc(N[C@H]2CC[C@@H](NC(=O)OCC3c4ccccc4-c4ccccc43)CC2)nc2ccccc12 [compound 864] was tested. Which IC50 did it give?
A: > 200 nM

Q: How did the IC50 turn out when COc1ccc(NC(=O)N[C@H]2CC[C@@H](Nc3nc(N(C)C)c4ccccc4n3)CC2)c(OC)c1 [compound 79] was run?
A: < 50 nM

Q: With CN(C)c1nc(N[C@H]2CC[C@@H](CNC(=O)OCC(Cl)(Cl)Cl)CC2)nc2ccccc12 [compound 885] as the compound, how does the IC50 read?
A: > 200 nM

same assay, conditions: class by percent of control at 10^−7 M or by IC50; read-out: class

Q: Which IC50 does the source give for CN(C)c1nc(N[C@H]2CC[C@@H](CNC(=O)Nc3cccc(Cl)c3Cl)CC2)nc2ccccc12 [Example 1028, N-(2,3-dichlorophenyl)-N′-[(cis-4-{[4-(dimethylamino)quinazolin-2-yl]amino}cyclohexyl)methyl]urea] here?
A: < 50 nM

Q: With COc1cccc(Oc2ccc(C(=O)N[C@H]3CC[C@@H](Nc4nc(N(C)C)c5ccccc5n4)CC3)cn2)c1OC [Example 1066, 6-(2,3-dimethoxyphenoxy)-N-(cis-4-{[4-(dimethylamino)quinazolin-2-yl]amino}cyclohexyl)nicotinamide] as the compound, how does the IC50 read?
A: < 50 nM

— patent US20070010671A1, “Novel quinazoline derivatives and methods of treatment related to the use thereof” (priority 2003, published 2007)
